Measurements published in PubChem BioAssay (NCI).
“And” between values parts separate entries of the source, which are not always exact repeats. Equal values may be shown once.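 Five compound concentrations were applied to cells in 96-well plates for 48 hours; endpoints were derived by simple linear interpolation of the resulting dose-response curve. The concentration for 50% growth inhibition is given as GI50. TGI: concentration producing complete growth inhibition.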

Tests used:
Test in all cases: inhibition of tumour cell growth, NCI panel, 48 h
HT29 colon = tested on: HT29 colon
UACC-62 melanoma = tested on: UACC-62 melanoma
MALME-3M melanoma = tested on: MALME-3M melanoma
RPMI-8226 leukemia = tested on: RPMI-8226 leukemia
NCI-H522 lung = tested on: NCI-H522 lung
SK-OV-3 ovarian = tested on: SK-OV-3 ovarian
SW-620 colon = tested on: SW-620 colon
SK-MEL-5 melanoma = tested on: SK-MEL-5 melanoma
PC-3 prostate = tested on: PC-3 prostate
HCT-15 colon = tested on: HCT-15 colon

SMILES	TGI (HT29 colon)	GI50 (UACC-62 melanoma)	TGI (UACC-62 melanoma)	GI50 (MALME-3M melanoma)	TGI (MALME-3M melanoma)	TGI (RPMI-8226 leukemia)	TGI (NCI-H522 lung)	TGI (SK-OV-3 ovarian)	GI50 (SW-620 colon)	TGI (SW-620 colon)	TGI (SK-MEL-5 melanoma)	TGI (PC-3 prostate)	TGI (HCT-15 colon)
COC(=O)c1cc2ccc(OC(C)=O)c(OC(C)=O)c2cn1	52.6 µM	16.3 µM	5.8 µM and 35.1 µM	11.5 µM	24 µM	4.91 µM	34.5 µM	52.4 µM	13.4 µM	31.9 µM	30.3 µM	50.9 µM	39 µM
COc1ccc(C(SC2C(O)C(CO)OC2n2ccc(N)nc2=O)(c2ccccc2)c2ccc(OC)cc2)cc1 (stereo not drawn)	36.2 µM	–	33 µM	–	28.3 µM	59.3 µM	31.2 µM	56.1 µM	–	> 100 µM	25.6 µM	41.1 µM	46.2 µM
C/C=C(/C)C(=O)O[C@H](C[C@@H](C)[C@H]1CC(c2ccoc2)OC1=O)[C@@]1(C)C(=O)CCC2O[C@]21C (stereo partly drawn)	> 100 µM	–	> 100 µM	–	> 100 µM	> 100 µM	> 100 µM	> 100 µM	–	> 100 µM	> 100 µM	> 100 µM	> 100 µM
COc1ccc(-c2c(C#N)c(S)n(NS(=O)(=O)c3ccc(C)cc3)c(=O)c2C#N)cc1	> 100 µM	–	31.5 µM	–	> 100 µM	15.4 µM	33.7 µM	> 100 µM	–	34.7 µM	30 µM	67.5 µM	32.4 µM
CC(=O)c1c(C(F)(F)F)n([O-])c2cc(Cl)c(Cl)cc2[n+]1=O	2.54 µM	–	2.58 µM	–	2.47 µM	0.353 µM	0.368 µM	2.9 µM	–	1.34 µM	2.06 µM	3.09 µM	0.759 µM
Cc1c2c(n(CCc3ccc(Cl)cc3)c1C)NC(c1ccccc1)C(C#N)S2(=O)=O (stereo not drawn)	> 65.9 µM	–	> 100 µM	–	> 80.2 µM	57.8 µM	> 100 µM	> 100 µM	–	> 100 µM	14.3 µM	> 100 µM	> 100 µM
O=c1oc2ccccc2cc1-c1cn2cc(Cl)ccc2n1	> 59.8 µM	–	0.898 µM	–	4.77 µM	59.7 µM	0.722 µM	5.96 µM	–	31.7 µM	19.1 µM	16.4 µM	20.7 µM
CC1(O)CC(=O)c2c(cc3ccc(-c4c5c(c(O)c6c(O)cccc46)C(=O)CC(C)(O)C5)c(O)c3c2O)C1 (stereo not drawn)	3.96 µM	–	> 100 µM	–	1.61 µM	2.8 µM	1.12 µM	> 100 µM	–	18.9 µM	0.495 µM	11.2 µM	4.08 µM
S=C1SCN(Cc2ccco2)CN1c1ccc(Br)cc1	39.5 µM	–	15.2 µM	–	35.3 µM	35.3 µM	23.7 µM	73.2 µM	–	62.3 µM	24.5 µM	37 µM	26.9 µM
